The record followed here is the supplement of paper PMC10307832.

What all share (test): relative viability (nuclei count vs DMSO), 5 days (fraction); higher = more cells survive
Compound in the assay “Sorafenib + Linsitinib”: CNC(=O)c1cc(Oc2ccc(NC(=O)Nc3ccc(Cl)c(C(F)(F)F)c3)cc2)ccn1 [Sorafenib] + C[C@]1(O)C[C@@H](c2nc(-c3ccc4ccc(-c5ccccc5)nc4c3)c3c(N)nccn32)C1 [Linsitinib] (partner 1 µM)
In short, it runs like this: (§1)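 Dosing by pin tool came one day after lung cancer cell lines were seeded in 1536-well plates, using either one drug or a fixed anchor-drug dose plus five library-drug doses (not always all listed) in √10 steps. After 5 days, nuclei were counted on 4× images. Relative viability is treated-well nuclei count divided by vehicle-well nuclei count, and values are medians of duplicate plates.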

Compound in the assay “Sorafenib + Phenformin”: CNC(=O)c1cc(Oc2ccc(NC(=O)Nc3ccc(Cl)c(C(F)(F)F)c3)cc2)ccn1 [Sorafenib] + N=C(N)NC(=N)NCCc1ccccc1 [Phenformin] (partner 250 µM)
Summed up: as §1

Compound in the assay “Sorafenib + AZD7762”: CNC(=O)c1cc(Oc2ccc(NC(=O)Nc3ccc(Cl)c(C(F)(F)F)c3)cc2)ccn1 [Sorafenib] + NC(=O)Nc1cc(-c2cccc(F)c2)sc1C(=O)N[C@H]1CCCNC1 [AZD7762] (partner 0.2 µM)
Summed up:
as §1

Compound in the assay “Sorafenib + Dasatinib”: CNC(=O)c1cc(Oc2ccc(NC(=O)Nc3ccc(Cl)c(C(F)(F)F)c3)cc2)ccn1 [Sorafenib] + Cc1nc(Nc2ncc(C(=O)Nc3c(C)cccc3Cl)s2)cc(N2CCN(CCO)CC2)n1 [Dasatinib] (partner 0.075 µM)
In short, it runs like this:
as §1

Compound in a further assay: CNC(=O)c1cc(Oc2ccc(NC(=O)Nc3ccc(Cl)c(C(F)(F)F)c3)cc2)ccn1 [Sorafenib]
Summed up: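 MetaXpress counted nuclei in 4× images of lung cancer cell lines that had been fixed, permeabilised and Hoechst-stained in one step. Before that, cells in 1536-well plates were kept overnight at 37 °C, pinned with five √10-spaced library-drug doses on vehicle-anchored plates, and cultured 5 days without medium change. Viability takes treated-well nuclei over vehicle-well nuclei and uses the median across plates. Plates were accepted only at control CV below 25% and at least one doubling.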

Turning to NCI-H1975, the relative viability is 1.01 with Sorafenib + Linsitinib (first compound 0.08 µM); 1.02 with Sorafenib + Linsitinib (first compound 0.253 µM); 1.08 in the assay with Sorafenib + Linsitinib (first compound 2.53 µM); 0.491 with Sorafenib + Linsitinib (first compound 8 µM); 0.462 with Sorafenib + Phenformin (first compound 0.08 µM); 0.403 in the assay with Sorafenib + Phenformin (first compound 0.253 µM). Further, the relative viability with Sorafenib + Phenformin (first compound 2.53 µM) was found to be 0.429; in the assay with Sorafenib + Phenformin (first compound 8 µM), 0.341; with Sorafenib + AZD7762 (first compound 0.08 µM), 0.807; with Sorafenib + AZD7762 (first compound 0.253 µM) it was 0.633; with Sorafenib + AZD7762 (first compound 2.53 µM) it was 0.803; with Sorafenib + AZD7762 (first compound 8 µM), 0.809. Moreover, the relative viability with Sorafenib + Dasatinib (first compound 0.08 µM) worked out at 0.423; with Sorafenib + Dasatinib (first compound 0.253 µM), 0.305; with Sorafenib + Dasatinib (first compound 2.53 µM), 0.374; in the assay with Sorafenib + Dasatinib (first compound 8 µM), 0.314; with Sorafenib (0.08 µM), 1.05; with Sorafenib (0.253 µM), 0.889. In addition, the relative viability in the assay with Sorafenib (2.53 µM) came out at 1.1; with Sorafenib (8 µM), 1.03.

RERF-LC-KJ: the relative viability with Sorafenib + Linsitinib (first compound 0.08 µM) worked out at 0.873; with Sorafenib + Linsitinib (first compound 0.253 µM) it was 0.872; in the assay with Sorafenib + Linsitinib (first compound 2.53 µM), 0.798; with Sorafenib + Linsitinib (first compound 8 µM), 0.739; with Sorafenib + Phenformin (first compound 0.08 µM), 0.437; with Sorafenib + Phenformin (first compound 0.253 µM), 0.435. Moreover, the relative viability worked out at 0.463 with Sorafenib + Phenformin (first compound 2.53 µM); 0.394 with Sorafenib + Phenformin (first compound 8 µM); 1.09 in the assay with Sorafenib + AZD7762 (first compound 0.08 µM); 0.781 in the assay with Sorafenib + AZD7762 (first compound 0.253 µM); 0.941 with Sorafenib + AZD7762 (first compound 2.53 µM); 0.897 in the assay with Sorafenib + AZD7762 (first compound 8 µM). Also, the relative viability stood at 0.967 with Sorafenib + Dasatinib (first compound 0.08 µM); 0.668 in the assay with Sorafenib + Dasatinib (first compound 0.253 µM); 0.77 with Sorafenib + Dasatinib (first compound 2.53 µM); 0.401 in the assay with Sorafenib + Dasatinib (first compound 8 µM); 1.01 with Sorafenib (0.08 µM); 0.903 with Sorafenib (0.253 µM). Besides, the relative viability in the assay with Sorafenib (2.53 µM) is 0.976; with Sorafenib (8 µM) it was 0.941.

For NCI-H1437, the relative viability in the assay with Sorafenib + Linsitinib (first compound 0.08 µM) is 0.989; with Sorafenib + Linsitinib (first compound 0.253 µM), 1; in the assay with Sorafenib + Linsitinib (first compound 2.53 µM), 0.657; with Sorafenib + Linsitinib (first compound 8 µM), 0.244; with Sorafenib + Phenformin (first compound 0.08 µM), 0.301; with Sorafenib + Phenformin (first compound 0.253 µM) it was 0.299. The relative viability came to 0.302 with Sorafenib + Phenformin (first compound 2.53 µM); 0.306 in the assay with Sorafenib + Phenformin (first compound 8 µM); 1.23 with Sorafenib + AZD7762 (first compound 0.08 µM); 1.05 with Sorafenib + AZD7762 (first compound 0.253 µM); 1.13 with Sorafenib + AZD7762 (first compound 2.53 µM); 0.539 in the assay with Sorafenib + AZD7762 (first compound 8 µM). In addition, the relative viability in the assay with Sorafenib + Dasatinib (first compound 0.08 µM) turned out to be 0.416; with Sorafenib + Dasatinib (first compound 0.253 µM), 0.288; with Sorafenib + Dasatinib (first compound 2.53 µM), 0.421; in the assay with Sorafenib + Dasatinib (first compound 8 µM), 0.142; with Sorafenib (0.08 µM), 0.999; with Sorafenib (0.253 µM), 0.872. Besides, the relative viability is 0.945 with Sorafenib (2.53 µM) and 0.583 with Sorafenib (8 µM).

With HCC-827, the relative viability with Sorafenib + Linsitinib (first compound 0.08 µM) was 0.934; with Sorafenib + Linsitinib (first compound 0.253 µM) it was 0.88; with Sorafenib + Linsitinib (first compound 2.53 µM), 0.986; with Sorafenib + Linsitinib (first compound 8 µM), 0.851; with Sorafenib + Phenformin (first compound 0.08 µM), 0.447; with Sorafenib + Phenformin (first compound 0.253 µM), 0.399. Moreover, the relative viability amounted to 0.447 with Sorafenib + Phenformin (first compound 2.53 µM); 0.424 with Sorafenib + Phenformin (first compound 8 µM); 0.211 with Sorafenib + AZD7762 (first compound 0.08 µM); 0.207 in the assay with Sorafenib + AZD7762 (first compound 0.253 µM); 0.215 with Sorafenib + AZD7762 (first compound 2.53 µM); 0.161 with Sorafenib + AZD7762 (first compound 8 µM). Moreover, the relative viability with Sorafenib + Dasatinib (first compound 0.08 µM) was determined as 0.38; in the assay with Sorafenib + Dasatinib (first compound 0.253 µM), 0.435; with Sorafenib + Dasatinib (first compound 2.53 µM) it was 0.299; with Sorafenib + Dasatinib (first compound 8 µM) it was 0.327; in the assay with Sorafenib (0.08 µM), 1.06; with Sorafenib (0.253 µM), 0.954. In addition, the relative viability with Sorafenib (2.53 µM) turned out to be 1.02; with Sorafenib (8 µM) it was 0.956.

As to BEN, the relative viability with Sorafenib + Linsitinib (first compound 0.08 µM) was 1.02; with Sorafenib + Linsitinib (first compound 0.253 µM), 0.914; with Sorafenib + Linsitinib (first compound 2.53 µM), 0.886; in the assay with Sorafenib + Linsitinib (first compound 8 µM), 0.693; with Sorafenib + Phenformin (first compound 0.08 µM) it was 0.278; in the assay with Sorafenib + Phenformin (first compound 0.253 µM), 0.254. The relative viability was determined as 0.239 with Sorafenib + Phenformin (first compound 2.53 µM); 0.205 with Sorafenib + Phenformin (first compound 8 µM); 0.493 with Sorafenib + AZD7762 (first compound 0.253 µM); 0.741 with Sorafenib + AZD7762 (first compound 2.53 µM); 0.611 in the assay with Sorafenib + AZD7762 (first compound 8 µM); 0.342 with Sorafenib + Dasatinib (first compound 0.08 µM). The relative viability with Sorafenib + Dasatinib (first compound 0.253 µM) was 0.255; with Sorafenib + Dasatinib (first compound 2.53 µM) it was 0.381; with Sorafenib + Dasatinib (first compound 8 µM), 0.309; in the assay with Sorafenib (0.08 µM) it was 1.08; with Sorafenib (0.253 µM), 0.826; in the assay with Sorafenib (2.53 µM), 1.15. Further, the relative viability with Sorafenib (8 µM) is 0.823.

With A-427, the relative viability with Sorafenib + Linsitinib (first compound 0.08 µM) stood at 1.07; with Sorafenib + Linsitinib (first compound 0.253 µM), 1.06; with Sorafenib + Linsitinib (first compound 2.53 µM) it was 1.03; with Sorafenib + Linsitinib (first compound 8 µM) it was 0.987; with Sorafenib + Phenformin (first compound 0.08 µM), 0.444; in the assay with Sorafenib + Phenformin (first compound 0.253 µM) it was 0.389. Moreover, the relative viability with Sorafenib + Phenformin (first compound 2.53 µM) came out at 0.333; with Sorafenib + Phenformin (first compound 8 µM) it was 0.115; with Sorafenib + AZD7762 (first compound 0.08 µM), 0.831; with Sorafenib + AZD7762 (first compound 0.253 µM) it was 0.675; with Sorafenib + AZD7762 (first compound 2.53 µM) it was 0.715; in the assay with Sorafenib + AZD7762 (first compound 8 µM), 0.541. Moreover, the relative viability was 0.75 with Sorafenib + Dasatinib (first compound 0.08 µM); 0.671 in the assay with Sorafenib + Dasatinib (first compound 0.253 µM); 0.31 with Sorafenib + Dasatinib (first compound 8 µM); 0.999 in the assay with Sorafenib (0.08 µM); 0.902 with Sorafenib (0.253 µM); 0.94 with Sorafenib (2.53 µM). In addition, in the assay with Sorafenib (8 µM), the relative viability was 0.752.

As for NCI-H727, the relative viability with Sorafenib + Linsitinib (first compound 0.08 µM) is 0.29; with Sorafenib + Linsitinib (first compound 0.253 µM), 0.226; in the assay with Sorafenib + Linsitinib (first compound 2.53 µM), 0.33; with Sorafenib + Linsitinib (first compound 8 µM), 0.231; in the assay with Sorafenib + Phenformin (first compound 0.08 µM) it was 0.634; in the assay with Sorafenib + Phenformin (first compound 0.253 µM), 0.416. Moreover, the relative viability in the assay with Sorafenib + Phenformin (first compound 2.53 µM) came to 0.439; in the assay with Sorafenib + Phenformin (first compound 8 µM), 0.507; in the assay with Sorafenib + AZD7762 (first compound 0.08 µM), 0.716; in the assay with Sorafenib + AZD7762 (first compound 0.253 µM), 0.6; in the assay with Sorafenib + AZD7762 (first compound 8 µM) it was 0.502; with Sorafenib + Dasatinib (first compound 0.08 µM) it was 0.481. For the same cell line, the relative viability in the assay with Sorafenib + Dasatinib (first compound 0.253 µM) is 0.453; with Sorafenib + Dasatinib (first compound 2.53 µM) it was 0.399; in the assay with Sorafenib + Dasatinib (first compound 8 µM), 0.232; with Sorafenib (0.08 µM), 1.15; with Sorafenib (0.253 µM) it was 0.768; with Sorafenib (2.53 µM), 0.88. The relative viability in the assay with Sorafenib (8 µM) came to 0.691.
